Source: patent US20250122191A1, “COMPOUNDS AS BCL-2 INHIBITORS” (Fochon Biosciences, Ltd, priority 2021, published 2025)
pIC50: −log10 of the molar value.

How the values were obtained:
[1] = tested on: RS4;11-BCL-2 D103E cells; assay: Cell proliferation assay (MTS), RS4;11-BCL-2 D103E engineered cells; assay type: cell-based; settings: Homo sapiens, 72 h, read-out: RS4, 11 BCL2-D103E IC50
How it was run: (§1)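 Inhibition of mutant BCL-2 is inferred from reduced proliferation of RS4;11 cells stably overexpressing the mutant. Compounds are tested at 1.5–10000 nM for 120 h (G101V, F104L) or 72 h (D103E, D103Y), with MTS absorbance at 490 nm used to derive IC50.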

[2] = tested on: RS4;11-BCL-2 D103Y cells; assay: Cell proliferation assay (MTS), RS4;11-BCL-2 D103Y engineered cells; assay type: cell-based; settings: Homo sapiens, 72 h, read-out: RS4, 11 BCL2-D103Y IC50
Excerpt: MTS testing kit was purchased from Promega (Madison, WI, USA). The RPMI-1640, Fetal bovine serum and Penicillin-Streptomycin were purchased from BI (Biological Industries, Beit Haemek, Israel). Puromycin was purchased from Beyotime (shanghai, China). Dimethyl sulfoxide (DMSO) was purchased from Sigma (St. Louis., MO, USA). RS4;11-BCL-2 G101V (Cobioer Lot. #: CBD2021063013P4), RS4;11-BCL-2 D103E (Cobioer Lot. #: CBD2021063013P4), RS4;11-BCL-2 D103Y (Cobioer Lot. #: CBD2022012101P4) and RS4;11-BCL-2 F104L (Cobioer Lot. #: CBD2021063014P4) cells were cultured in RPMI1640 supplemented with 1 ug/mL puromycin, 100 U/mL Penicillin-Streptomycin and 10% FBS.
To investigate whether a compound is able to inhibit the activity of BCL-2 mutation in cells, a mechanism-based assay using engineered cell lines stably overexpressing BCL-2 mutation (RS4;11-BCL-2 G101V, RS4;11-BCL-2 D103E, RS4;11-BCL-2 D103Y, and RS4;11-BCL-2 F104L) was developed. In this assay, the inhibition of BCL-2 mutation was reflected by the inhibition of cell proliferation of engineered RS4;11 cells. Cells were plated into 96-well plates at optimized cell density (RS4;11-BCL-2 G101V: 5000 cells/well; RS4;11-BCL-2 D103E: 7500 cells/well; RS4;11-BCL-2 D103Y: 7500 cells/well; RS4;11-BCL-2 F104L: 5000 cells/well). Plates were incubated at 37° C., with 5% CO2 for 4 h (RS4;11-BCL-2 G101V, RS4;11-BCL-2 F104L) and 24 h (RS4;11-BCL-2 D103E, RS4;11-BCL-2 D103Y), respectively. Compounds were serially diluted and added to the plates with the final concentrations of 10000, 3333.3, 1111.1, 370.4, 123.5, 41.2, 13.7, 4.6 and 1.5 nM. Plates were incubated at 37° C., with 5% CO2 for 120 h (RS4; 11-BCL-2 G101V, RS4; 11-BCL-2 F104L) and 72 h (RS4;11-BCL-2 D103E, RS4;11-BCL-2 D103Y), respectively. 20 μl MTS was added into each well and the plates were incubated at 37° C., with 5% CO2 exactly for 2 h. The absorbance was measured by a microplate reader at 490 nm. IC50 values were calculated using GraphPad Prism 8.0 software.

[3] = tested on: RS4;11-BCL-2 G101V cells; assay: Cell proliferation assay (MTS), RS4;11-BCL-2 G101V engineered cells; assay type: cell-based; settings: Homo sapiens, 120 h, read-out: RS4, 11 BCL2-G101V IC50
How it was run: as §1

[4] = tested on: Toledo cells; assay: Cell proliferation assay (MTS), Toledo cells; assay type: cell-based; settings: Homo sapiens, 72 h
How it was run: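 Toledo cells (RPMI-1640, 10% FBS) seeded at 30000 cells/well, rested 4 h, then exposed 72 h at 37 °C, 5% CO2 to compound at nine final concentrations, 1.5–10000 nM. Viability by MTS (2 h), absorbance at 490 nm. IC50 from the concentration-response.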

[5] = tested on: RS4;11-BCL-2 F104L cells; assay: Cell proliferation assay (MTS), RS4;11-BCL-2 F104L engineered cells; assay type: cell-based; settings: Homo sapiens, 120 h, read-out: RS4, 11 BCL2-F104L IC50
How it was run: as §1

[6] = Pharmacokinetics assay in rats; assay type: in vivo; settings: rat, male Sprague-Dawley rats, po, 5 mg/kg, plasma
Method: The purpose of this study was to determine the pharmacokinetics of Examples in male Sprague-Dawley rats (Supplied by Beijing Vital River Laboratory Animal Technology Co., Ltd.) following a single intravenous bolus injection at 1 mg/kg and oral gavage (PO) administration at 5 mg/kg.
Animals in Group 1 were administered with Examples by single intravenous bolus injection at 1 mg/kg, which was formulated in 10% DMSO (Sigma, Batch #LPCOS181): 60% PEG400 (Sigma, Batch #MKCH6281): 30% water, pH 5-6 at 1 mg/mL as a solution. Animals in Group 2 were administered with Examples by single oral gavage (PO) administration at 5 mg/kg, which was formulated in 10% DMSO (Sigma, Batch #BCCD6641): 60% PEG400 (Sigma, Batch #MKCL4921): 30% water at 1 mg/mL as a solution. Blood samples were collected at 0.083, 0.25, 0.5, 1, 2, 4, 8, 12 and 24 hours post-dose. Concentrations of Examples in plasma were determined by LC/MS/MS (LC: Waters UPLC; MS: Triple Quad 6500 plus).

| SMILES | pIC50 [1] | pIC50 [2] | pIC50 [3] | pIC50 [4] | pIC50 [5] | AUC(0-t) [6] | half-life [6] | Cmax ([6]; read-out: Cmax/C0) |
| --- | --- | --- | --- | --- | --- | --- | --- | --- |
| COc1nc2[nH]cc(F)c2cc1Oc1cc(N2CCC3(CC2)CC(N2CCN(Cc4ccnc5c4NCCO5)C[C@H]2c2ccccc2C(C)C)C3)ccc1C(=O)NS(=O)(=O)c1cnc(NC[C@H]2CC[C@](C)(O)CC2)c([N+](=O)[O-])c1 [Example 192, 4-(2-((R)-4-((2,3-dihydro-1H-pyrido[2,3-b][1,4]oxazin-8-yl)methyl)-2-(2-isopropylphenyl)piperazin-1-yl)-7-azaspiro[3.5]nonan-7-yl)-2-((3-fluoro-6-methoxy-1H-pyrrolo[2,3-b]pyridin-5-yl)oxy)-N-((6-((((1r,4r)-4-hydroxy-4-methylcyclohexyl)methyl)amino)-5-nitropyridin-3-yl)sulfonyl)benzamide] | 9.00 | 9.00 | – | – | – | – | – | – |
| COc1cc(CN2CCN(C3CC4(CCN(c5ccc(C(=O)NS(=O)(=O)c6cnc(NC[C@H]7CC[C@](C)(O)CC7)c([N+](=O)[O-])c6)c(Oc6cc7c(F)c[nH]c7nc6OC)c5)CC4)C3)[C@H](c3ccccc3C(C)C)C2)cc(O)n1 [Example 69, 2-((3-fluoro-6-methoxy-1H-pyrrolo[2,3-b]pyridin-5-yl)oxy)-N-((6-((((1r,4r)-4-hydroxy-4-methylcyclohexyl)methyl)amino)-5-nitropyridin-3-yl)sulfonyl)-4-(2-((R)-4-((2-hydroxy-6-methoxypyridin-4-yl)methyl)-2-(2-isopropylphenyl)piperazin-1-yl)-7-azaspiro[3.5]nonan-7-yl)benzamide] | – | 9.00 | 9.00 | – | – | – | – | – |
| COc1ccc(CN2CCN(C3CC4(CCN(c5ccc(C(=O)NS(=O)(=O)c6cnc(NC[C@H]7CC[C@](C)(O)CC7)c([N+](=O)[O-])c6)c(Oc6cnc7[nH]cc(F)c7c6)c5)CC4)C3)[C@H](c3ccccc3C(C)C)C2)cc1OC [Example 74, 4-(2-((R)-4-(3,4-dimethoxybenzyl)-2-(2-isopropylphenyl)piperazin-1-yl)-7-azaspiro[3.5]nonan-7-yl)-2-((3-fluoro-1H-pyrrolo[2,3-b]pyridin-5-yl)oxy)-N-((6-((((1r,4r)-4-hydroxy-4-methylcyclohexyl)methyl)amino)-5-nitropyridin-3-yl)sulfonyl)benzamide] | 9.00 | 8.30 | 9.00 | 9.00 | – | – | – | – |
| COc1nc2[nH]cc(F)c2cc1Oc1cc(N2CCC3(CC2)CC(N2CCN(Cc4ccnc5c4NCC(C)O5)C[C@H]2c2ccccc2C(C)C)C3)ccc1C(=O)NS(=O)(=O)c1cnc(NC[C@H]2CC[C@](C)(O)CC2)c([N+](=O)[O-])c1 (stereo partly drawn) [Example 195, 2-((3-fluoro-6-methoxy-1H-pyrrolo[2,3-b]pyridin-5-yl)oxy)-N-((6-((((1r,4r)-4-hydroxy-4-methylcyclohexyl)methyl)amino)-5-nitropyridin-3-yl)sulfonyl)-4-(2-((2R)-2-(2-isopropylphenyl)-4-((3-methyl-2,3-dihydro-1H-pyrido[2,3-b][1,4]oxazin-8-yl)methyl)piperazin-1-yl)-7-azaspiro[3.5]nonan-7-yl)benzamide] | – | 8.10 | – | – | – | – | – | – |
| COc1cc(CN2CCN(C3CC4(CCN(c5ccc(C(=O)NS(=O)(=O)c6cnc(NC[C@H]7CC[C@](C)(O)CC7)c([N+](=O)[O-])c6)c(Oc6cc7c(F)c[nH]c7nc6OC)c5)CC4)C3)[C@H](c3ccccc3C(C)C)C2)cnc1C1CC1 [Example 254, 4-(2-((R)-4-((6-cyclopropyl-5-methoxypyridin-3-yl)methyl)-2-(2-isopropylphenyl)piperazin-1-yl)-7-azaspiro[3.5]nonan-7-yl)-2-((3-fluoro-6-methoxy-1H-pyrrolo[2,3-b]pyridin-5-yl)oxy)-N-((6-((((1r,4r)-4-hydroxy-4-methylcyclohexyl)methyl)amino)-5-nitropyridin-3-yl)sulfonyl)benzamide] | – | 8.52 | 9.00 | 9.00 | 8.52 | – | – | – |
| COc1cc(CN2CCN(C3CC4(CCN(c5ccc(C(=O)NS(=O)(=O)c6cnc(NC[C@H]7CC[C@](C)(O)CC7)c([N+](=O)[O-])c6)c(Oc6cc7c(F)c[nH]c7nc6OC)c5)CC4)C3)[C@H](c3ccccc3C(C)C)C2)ncc1C1CC1 [Example 249, 4-(2-((R)-4-((5-cyclopropyl-4-methoxypyridin-2-yl)methyl)-2-(2-isopropylphenyl)piperazin-1-yl)-7-azaspiro[3.5]nonan-7-yl)-2-((3-fluoro-6-methoxy-1H-pyrrolo[2,3-b]pyridin-5-yl)oxy)-N-((6-((((1r,4r)-4-hydroxy-4-methylcyclohexyl)methyl)amino)-5-nitropyridin-3-yl)sulfonyl)benzamide] | 9.00 | 8.30 | 9.00 | – | – | – | – | – |
| COc1nc2[nH]cc(F)c2cc1Oc1cc(N2CCC3(CC2)CC(N2CCN(Cc4ccnc5c4CCO5)C[C@H]2c2ccccc2C(C)C)C3)ccc1C(=O)NS(=O)(=O)c1cnc(NC[C@H]2CC[C@](C)(O)CC2)c([N+](=O)[O-])c1 [Example 190, 4-(2-((R)-4-((2,3-dihydrofuro[2,3-b]pyridin-4-yl)methyl)-2-(2-isopropylphenyl)piperazin-1-yl)-7-azaspiro[3.5]nonan-7-yl)-2-((3-fluoro-6-methoxy-1H-pyrrolo[2,3-b]pyridin-5-yl)oxy)-N-((6-((((1r,4r)-4-hydroxy-4-methylcyclohexyl)methyl)amino)-5-nitropyridin-3-yl)sulfonyl)benzamide] | 9.00 | 8.10 | – | – | – | – | – | – |
| COc1nc2[nH]cc(F)c2cc1Oc1cc(N2CCC3(CC2)CC(N2CCN(Cc4ccc(OC)c5oc(C)cc45)C[C@H]2c2ccccc2C(C)C)C3)ccc1C(=O)NS(=O)(=O)c1cnc(NC[C@H]2CC[C@](C)(O)CC2)c([N+](=O)[O-])c1 [Example 13, 2-((3-fluoro-6-methoxy-1H-pyrrolo[2,3-b]pyridin-5-yl)oxy)-N-((6-((((1r,4r)-4-hydroxy-4-methylcyclohexyl)methyl)amino)-5-nitropyridin-3-yl)sulfonyl)-4-(2-((R)-2-(2-isopropylphenyl)-4-((7-methoxy-2-methylbenzofuran-4-yl)methyl)piperazin-1-yl)-7-azaspiro[3.5]nonan-7-yl)benzamide] | 9.00 | – | 9.00 | 9.00 | 9.00 | 1890 ng·h/mL | 11.3 h | 198 ng/mL |
